# According to patent publication US4673675A, “1-(2-pyridyl) 4-cycloalkylmethyl piperazines having cardiotropic activity” (Innothera, priority 1984, dated 1987):
# Tests used:
# [1] = test system: cardiac hemodynamics in anaesthetized dogs; assay: Cardiac hemodynamics in dogs anaesthetized with Nembutal, open thorax; assay type: in vivo, dog
# Protocol: (§1) The positive inotropic effect of compounds (I) of the invention and the pharmaceutically acceptable salts thereof were further tested on the cardiac dynamics of an anaesthetized animal and on a wakeful chronically implanted animal.
# (§2) a. Test on a dog anaesthetized with Nembutal
# (§3) Two test protocols were carried out, one on a dog with open thorax and the other on a dog with closed thorax. The left intraventricular pressure (PIVG) and aortic pressure (supra sigmoid) (PAO) were measured with high fidelity micro-sensors (Millar 5F), the first derivative of the left ventricular pressure (dP/dt) was recorded as well as the electrocardiogram. The instantaneous alveolar PCO2 was continuously measured. Finally, different blood flow rates were measured, namely the femoral and carotid flow rates in the animals with closed thorax and the aortic and coronary flow rates in those on which a thoracotomy had been performed. These different rates were measured by the electro-magnetic method.
# [2] = Toxicity by a single intravenous administration in mice; assay type: in vivo; details: mouse, in vivo; single intravenous administration, mice; Litchfield and Wilcoxon; read-out: LD50 (95% confidence limit)
# Protocol: (§4) The toxicity of the compounds of the invention was also tested. It concerns more precisely the test of toxicity by a single administration made for all the compounds on male mice, E.O.P.S. of SWISS strain (5 animals per batch).
# (§5) The compounds under test were solubilized in a […] aqueous solution of NaCl, at various concentrations and the solutions obtaoned were injected intravenously at the rate of 10 ml.kg^-1 of body weight.
# (§6) The administration was made in 20 seconds, the animals being kept under clinical observation for 3 hours after administration, then daily for 7 days.
# [3] = target: T1, isolated left auricle of a guinea pig (cardiac inotropic function β1) (Cavia porcellus, UniProt H0W3H1); assay: Positive inotropic effect: contractile force of the isolated left auricle of a guinea pig
# T1 construct: the left auricle being swiftly removed and immersed immediately in a Krebs-Henseleit solution; from tissue; host or cells: isolated left auricle of guinea pigs of either sex
# Excerpt: The in vitro study was made on the contractile force of the isolated left auricle of a guinea pig. The technique used was that of P. LUMBEY et Coll. […] It allowed the cardiac inotropic function β1 to be studied.
# The preparation was connected to an isometric myograph (F-50 Narco), then to a recording system (Physiograph M-K III Narco). For the whole duration of the test the auricle was electrically stimulated by a neurostimulator (Equipement Industriel II) at the frequence of 90 to 120 beats/min.
# [4] = test system: isolated right auricle of a guinea pig; assay: Chronotropic action (bradycardizing effect) on the isolated right auricle of a guinea pig; details: 1·10^-4 g·ml^-1, 30 minutes contact, % reduction of beats/minute; for inhibition at 100 µg/mL: Cavia porcellus, 0.5 h
# Protocol: Guinea pigs of either sex were killed with a blow and bled, the right auricle was swiftly removed and immediately immersed in a Krebs-Henseleit solution, thermostatically controlled to 36° C.±0.5° C. and aerated with a mixture of O2 and CO2 (95% and 5%). The preparation was connected to an isometric myograph (F-50 Narco) then to a recording system (Physiograpg M-K III--Narco).
# A 60 minute delay was required for ensuring chronotropic action stability.
# The compounds (I) of the invention and the pharmaceutically acceptable salts thereof were added to the nutritive medium in a concentration of 1.10^-4 g.ml^-1 and left in contact with the auricle for 30 minutes. The action was evaluated by the percentage reduction of the number of beats/minute (beat/min.) before administration of the compound under test.
# [5] = test system: cardiac hemodynamics in chronically implanted wakeful dogs; assay: Cardiac hemodynamics in chronically implanted wakeful dogs; assay type: in vivo, dog
# Protocol: as §1
# b. Test on chronically implanted wakeful dogs
# The compounds were tested orally and intravenously on dogs previously implanted with a pressure probe placed in the left ventricle (Janssen) and a Doppler rate sensor placed on the aorta, the tests being carried out at the minium 8 days after implantation.
# [6] = test system: cardiac hemodynamics of anaesthetized dogs; assay: Cardiac hemodynamics in dogs anaesthetized with Nembutal, closed thorax; assay type: in vivo, dog
# Protocol: as §1, §2, §3
# An analysis of the dose/effect relation on three dogs (see results shown in table V below) confirmed the results obtained on dogs with open thorax for compound 1a.
# [7] = test system: male mice, E.O.P.S. of SWISS strain; assay: Toxicity by a single intravenous administration in mice; assay type: in vivo; details: single i.v. administration; symptoms observed at the dose where there was no mortality
# Protocol: as §4, §5, §6
# [8] = 0.5 mg·kg^-1 i.v., closed thorax
# T1 sequence (H0W3H1 1-470): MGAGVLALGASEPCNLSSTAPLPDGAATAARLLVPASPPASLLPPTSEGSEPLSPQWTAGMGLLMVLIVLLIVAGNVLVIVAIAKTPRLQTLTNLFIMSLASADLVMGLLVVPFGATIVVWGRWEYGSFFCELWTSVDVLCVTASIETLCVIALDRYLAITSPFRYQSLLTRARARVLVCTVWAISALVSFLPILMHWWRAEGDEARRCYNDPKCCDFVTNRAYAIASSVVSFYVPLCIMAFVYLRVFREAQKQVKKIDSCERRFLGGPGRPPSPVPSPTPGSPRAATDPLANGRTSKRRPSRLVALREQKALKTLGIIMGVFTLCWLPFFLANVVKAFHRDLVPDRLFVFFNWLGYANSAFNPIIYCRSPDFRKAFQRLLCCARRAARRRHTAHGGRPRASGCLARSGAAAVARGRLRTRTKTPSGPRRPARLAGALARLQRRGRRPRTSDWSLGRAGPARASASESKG
smiles,measurement,setting,value
"c1ccc(N2CCN(CC3CC3)CC2)nc1 [Compound 1a, 1-(2-pyridyl) 4-cyclopropylmethyl piperazine]",other parameters measured,[1]; 0.5 mg·kg^-1 i.v.,did not vary significantly
same,time of the acme of the action after injection,[1]; 0.5 mg·kg^-1 i.v.,45 min
same,decrease of left ventricular telediastolic pressure,"[1]; 0.5 mg·kg^-1 i.v., significant",28%
same,D.A.O. (aortic flow rate) modification,[1]; 1 mg·kg^-1 i.v.,+23%
same,V.E.S. (systolic ejection volume) modification,[1]; 1 mg·kg^-1 i.v.,+13%
same,time following injection during which dP/dt increased significantly,[1]; 1 mg·kg^-1 i.v.,90 min
same,dP/dt+ (first derivative of the left ventricular pressure) modification,"[1]; 1 mg·kg^-1 i.v., significant",+31%
same,LD50 at 168 h,[2],47 mg/kg
same,Emax,"[3]; guinea pig, read-out: α (intrinsic activity)",60 ± 30%
same,EC50,"[3]; negative log. of the molar concentration producing 50% of maximum action, stimulated at 90 to 120 beats/min, read-out: pD2 (converted)",20.9 µM
same,inhibition at 100 µg/mL,[4],24%
same,increase of the dP/dt+,[5]; 1 mg.kg^-1 intravenously,136%
same,PIVG Syst. (left intraventricular pressure) modification,[5]; 5 mg·kg^-1 p.o.,+15%
same,D.A.O. (aortic flow rate) modification,[5]; 10 mg·kg^-1 p.o.,+27%
same,"F.C. (heartbeat rate, cardiac frequency) modification",[5]; 10 mg·kg^-1 p.o.,+45%
same,PIVG Syst. (left intraventricular pressure) modification,[5]; 10 mg·kg^-1 p.o.,+26%
same,dP/dt+ (first derivative of the left ventricular pressure) modification,[5]; 10 mg·kg^-1 p.o.,+55%
same,increase of dP/dt+/P,[5]; 5 and 10 mg.kg^-1 orally (results approximately similar for both doses),32%
same,P.Ao m (average aortic pressure) modification,[6]; [8],+11%
same,PtdVG (left ventricular telediastolic pressure) modification,[6]; [8],-35%
same,P.Ao m (average aortic pressure) modification,"[6]; 2 mg·kg^-1 i.v., closed thorax",+8%
same,PtdVG (left ventricular telediastolic pressure) modification,"[6]; 2 mg·kg^-1 i.v., closed thorax",-31%
same,dP/dt+ (first derivative of the left ventricular pressure) modification,"[6]; 2 mg·kg^-1 i.v., closed thorax",+28%
same,respiratory analeptic effect,"[6]; anaesthetized dogs, i.v.",appreciable and durable respiratory analeptic effect
same,duration of the positive inotropic effect,"[6]; i.v., closed thorax",exceeds three
same,dose at which the acme of the positive inotropic effect appeared,"[6]; i.v., closed thorax, increasing the dose did not increase the effect",0.5 mg/kg
c1ccc(N2CCN(CC3CCC3)CC2)nc1 [Compound 2],LD50 at 168 h,[2],67 mg/kg
same,inhibition at 100 µg/mL,[4],7%
c1ccc(N2CCN(CC3CCCCC3)CC2)nc1 [Compound 3],Clinical symptomatology,[7],"Hypersensitivity, stereotypy"
same,LD50 at 168 h,[2],81 mg/kg
same,inhibition at 100 µg/mL,[4],13%
CC(C)N(CCN1CCN(c2ccccn2)CC1)C(C)C [Compound 4],Clinical symptomatology,[7],"Cyanosis, starts"
same,LD50 at 168 h,[2],95 mg/kg
same,inhibition at 100 µg/mL,[4],9%
c1ccc(N2CCN(CCN3CCCCCC3)CC2)nc1 [Compound 6],LD50 at 168 h,[2],84 mg/kg
same,Reduction of the chronotropic effect,[4],Arrhythmia
CCN(CC)CCCN1CCN(c2ccccn2)CC1 [Compound 7],Clinical symptomatology,[7],"Cyanosis, apnoea"
same,LD50 at 168 h,[2],96 mg/kg
same,inhibition at 100 µg/mL,[4],16%
c1ccc(N2CCN(CCCN3CCCC3)CC2)nc1 [Compound 8],LD50 at 168 h,[2],142 mg/kg
same,inhibition at 100 µg/mL,[4],20%
c1ccc(N2CCN(CCCN3CCCCCC3)CC2)nc1 [Compound 10],LD50 at 168 h,[2],74 mg/kg
same,inhibition at 100 µg/mL,[4],0%
c1ccc(N2CCN(CCCN3CCOCC3)CC2)nc1 [Compound 11],Reduction of the chronotropic effect,[4],Arrhythmia
CC1CN(CCCN2CCN(c3ccccn3)CC2)CC(C)O1 (stereo not drawn) [Compound 12],LD50 at 168 h,[2],149 mg/kg
same,inhibition at 100 µg/mL,[4],0%
CCN(CC)CC(C)N1CCN(c2ccccn2)CC1 (stereo not drawn) [Compound 13],LD50 at 168 h,[2],76 mg/kg
same,Reduction of the chronotropic effect,[4],Arrhythmia
O=C(CN1CCN(c2ccccn2)CC1)Nc1cccc(F)c1 [Compound 14],Clinical symptomatology,[7],"Apnoea, sedation"
same,LD50 at 168 h,[2],129 mg/kg
same,inhibition at 100 µg/mL,[4],18%
O=C(CN1CCN(c2ccccn2)CC1)Nc1cc(F)cc(F)c1 [Compound 15],inhibition at 100 µg/mL,[4],0%
O=C(CN1CCN(c2ccccn2)CC1)Nc1cccc(C(F)(F)F)c1 [Compound 16],LD50 at 168 h,[2],109 mg/kg
same,inhibition at 100 µg/mL,[4],18%
COc1cc(CN2CCN(c3ccccn3)CC2)cc(OC)c1OC [Compound 17],LD50 at 168 h,[2],130 mg/kg
same,inhibition at 100 µg/mL,[4],31%
Clc1c(CN2CCN(c3ccccn3)CC2)ccc2c1OCO2 [Compound 18],inhibition at 100 µg/mL,[4],11%
